Reference: ChEMBL document CHEMBL4507326, “Data for DCP probe TP-030-2” (2021)

What was measured:
[1] = target: Melatonin receptor type 1A (Homo sapiens) (UniProt P48039); assay: Inhibition of Melatonin MT1 at 10 µM in the Eurofins-Panlabs radioligand binding assay (Eurofins_assay_251600); design: ligand concentration 0.05 nM; settings: Compound concentration 10.0 uM
[2] = target: 5-hydroxytryptamine receptor 3A (Homo sapiens) (UniProt P46098); assay: Inhibition of Serotonin (5-Hydroxytryptamine) 5-HT3 at 10 µM in the Eurofins-Panlabs radioligand binding assay (Eurofins_assay_271910); design: ligand concentration 0.69 nM; settings: Compound concentration 10.0 uM
[3] = target: Activin receptor type-1-like (Homo sapiens, UniProt P37023); assay: ALK1(ACL1LGF1) Takeda global kinase panel
[4] = target: Cytoplasmic tyrosine-protein kinase BMX (Homo sapiens, UniProt P51813); assay: Etk [BMX(BMX1CGF1)] Takeda global kinase panel
[5] = target: Cyclin-dependent kinase 17 (Homo sapiens, UniProt Q00537); assay: PCTAIRE2(CD17SGS1) Takeda global kinase panel
[6] = target: Cyclin-dependent kinase 9 (Homo sapiens, UniProt P50750); assay: CDK9(CDK9CGS1) Takeda global kinase panel
[7] = target: Dual specificity protein kinase CLK3 (Homo sapiens, UniProt P49761); assay: CLK3(CLK3LGY1) Takeda global kinase panel
[8] = target: Casein kinase I isoform alpha-like (Homo sapiens, UniProt Q8N752); assay: CK1alpha2(C1ALLGI5) Takeda global kinase panel
[9] = target: Casein kinase I isoform gamma-1 (Homo sapiens, UniProt Q9HCP0); assay: CK1gamma1(C1G1LGI1) Takeda global kinase panel
[10] = target: Casein kinase II subunit alpha' (Homo sapiens, UniProt P19784); assay: CK2alpha2(C2A2LGK1) Takeda global kinase panel
[11] = target: Interferon-induced, double-stranded RNA-activated protein kinase (Homo sapiens, UniProt P19525); assay: PKR(EIK2LGY1) Takeda global kinase panel
[12] = target: Tyrosine-protein kinase FRK (Homo sapiens, UniProt P42685); assay: FRK(FRK1LGF1) Takeda global kinase panel
[13] = target: Glycogen synthase kinase-3 beta (Homo sapiens, UniProt P49841); assay: GSK3beta(GS3BLGM1) Takeda global kinase panel
[14] = target: Serine/threonine-protein kinase LATS1 (Homo sapiens, UniProt O95835); assay: LATS1(LAT1LGRJ) Takeda global kinase panel
[15] = target: Mitogen-activated protein kinase kinase kinase kinase 5 (Homo sapiens, UniProt Q9Y4K4); assay: KHS1(M4K5LGY1) Takeda global kinase panel
[16] = target: Serine/threonine-protein kinase MARK2 (Homo sapiens, UniProt Q7KZI7); assay: MARK2(MAR2LGY1) Takeda global kinase panel
[17] = target: Mixed lineage kinase domain-like protein (Homo sapiens, UniProt Q8NB16); assay: MLKL(MLKLPHY1) Takeda global kinase panel
[18] = target: Myosin-IIIb (Homo sapiens, UniProt Q8WXR4); assay: MYO3B(MY3BLGA1) Takeda global kinase panel
[19] = target: Serine/threonine-protein kinase NLK (Homo sapiens, UniProt Q9UBE8); assay: NLK(NLK1LGI5) Takeda global kinase panel
[20] = target: High affinity nerve growth factor receptor (Homo sapiens, UniProt P04629); assay: TRKA(NTR1LGN1) Takeda global kinase panel
[21] = target: PAS domain-containing serine/threonine-protein kinase (Homo sapiens, UniProt Q96RG2); assay: PASK(PASKPHY1) Takeda global kinase panel
[22] = target: Serine/threonine-protein kinase pim-1 (Homo sapiens, UniProt P11309); assay: Pim1(PIM1LGP1) Takeda global kinase panel
[23] = target: 5'-AMP-activated protein kinase catalytic subunit alpha-1 (Homo sapiens, UniProt Q13131); assay: AMPKalpha1(PRA1PGF1) Takeda global kinase panel
[24] = target: Protein kinase C zeta type (Homo sapiens, UniProt Q05513); assay: PKCzeta(PRKZLGP1) Takeda global kinase panel
[25] = target: Serine/threonine-protein kinase SIK3 (Homo sapiens, UniProt Q9Y2K2); assay: QSK(SIK3LGP1) Takeda global kinase panel
[26] = target: SRSF protein kinase 1 (Homo sapiens, UniProt Q96SB4); assay: SRPK1(SRP1IHRL) Takeda global kinase panel
[27] = target: Serine/threonine-protein kinase 32A (Homo sapiens, UniProt Q8WU08); assay: YANK1(S32APHY1) Takeda global kinase panel
[28] = target: Serine/threonine-protein kinase 33 (Homo sapiens, UniProt Q9BYT3); assay: STK33(ST33LGF1) Takeda global kinase panel
[29] = target: Serine/threonine-protein kinase 4 (Homo sapiens, UniProt Q13043); assay: MST1(STK4LGF1) Takeda global kinase panel
[30] = target: Tyrosine-protein kinase Tec (Homo sapiens, UniProt P42680); assay: TEC(TEC1CGD1) Takeda global kinase panel
[31] = target: Dual specificity testis-specific protein kinase 2 (Homo sapiens, UniProt Q96S53); assay: TESK2(TES2LGRL) Takeda global kinase panel
[32] = target: Serine/threonine-protein kinase ULK3 (Homo sapiens, UniProt Q6PHR2); assay: ULK3(ULK3LGF1) Takeda global kinase panel
[33] = target: Wee1-like protein kinase (Homo sapiens, UniProt P30291); assay: Wee1(WEE1LGF1) Takeda global kinase panel
[34] = target: Mitogen-activated protein kinase kinase kinase 20 (Homo sapiens, UniProt Q9NYL2); assay: ZAK(ZAK1LGY1) Takeda global kinase panel
[35] = target: Wee1-like protein kinase 2 (Homo sapiens, UniProt P0C1S8); assay: Wee1B(WE1BLGF1) Takeda global kinase panel
[36] = target: 5-hydroxytryptamine receptor 1A (Homo sapiens) (UniProt P08908); settings: Compound concentration 10.0 uM
[37] = target: 5-hydroxytryptamine receptor 1D (Homo sapiens) (UniProt P28221); settings: Compound concentration 10.0 uM
[38] = target: 5-hydroxytryptamine receptor 5A (Homo sapiens) (UniProt P47898); settings: Compound concentration 10.0 uM
[39] = target: D(1A) dopamine receptor (Homo sapiens) (UniProt P21728); settings: Compound concentration 10.0 uM
[40] = target: D(2) dopamine receptor (Homo sapiens) (UniProt P14416); settings: Compound concentration 10.0 uM
[41] = target: Delta-type opioid receptor (Homo sapiens) (UniProt P41143); settings: Compound concentration 10.0 uM
[42] = target: Beta-2 adrenergic receptor (Homo sapiens) (UniProt P07550); settings: Compound concentration 10.0 uM
[43] = target: Muscarinic acetylcholine receptor M3 (Homo sapiens) (UniProt P20309); settings: Compound concentration 10.0 uM
[44] = target: Beta-1 adrenergic receptor (Homo sapiens) (UniProt P08588); settings: Compound concentration 10.0 uM
[45] = target: Histamine H1 receptor (Homo sapiens) (UniProt P35367); settings: Compound concentration 10.0 uM
[46] = species on record: Oryctolagus cuniculus; settings: Compound concentration 10.0 uM

Chain of PAS domain-containing serine/threonine-protein kinase (Q96RG2 whole entry, the tested form may be a part): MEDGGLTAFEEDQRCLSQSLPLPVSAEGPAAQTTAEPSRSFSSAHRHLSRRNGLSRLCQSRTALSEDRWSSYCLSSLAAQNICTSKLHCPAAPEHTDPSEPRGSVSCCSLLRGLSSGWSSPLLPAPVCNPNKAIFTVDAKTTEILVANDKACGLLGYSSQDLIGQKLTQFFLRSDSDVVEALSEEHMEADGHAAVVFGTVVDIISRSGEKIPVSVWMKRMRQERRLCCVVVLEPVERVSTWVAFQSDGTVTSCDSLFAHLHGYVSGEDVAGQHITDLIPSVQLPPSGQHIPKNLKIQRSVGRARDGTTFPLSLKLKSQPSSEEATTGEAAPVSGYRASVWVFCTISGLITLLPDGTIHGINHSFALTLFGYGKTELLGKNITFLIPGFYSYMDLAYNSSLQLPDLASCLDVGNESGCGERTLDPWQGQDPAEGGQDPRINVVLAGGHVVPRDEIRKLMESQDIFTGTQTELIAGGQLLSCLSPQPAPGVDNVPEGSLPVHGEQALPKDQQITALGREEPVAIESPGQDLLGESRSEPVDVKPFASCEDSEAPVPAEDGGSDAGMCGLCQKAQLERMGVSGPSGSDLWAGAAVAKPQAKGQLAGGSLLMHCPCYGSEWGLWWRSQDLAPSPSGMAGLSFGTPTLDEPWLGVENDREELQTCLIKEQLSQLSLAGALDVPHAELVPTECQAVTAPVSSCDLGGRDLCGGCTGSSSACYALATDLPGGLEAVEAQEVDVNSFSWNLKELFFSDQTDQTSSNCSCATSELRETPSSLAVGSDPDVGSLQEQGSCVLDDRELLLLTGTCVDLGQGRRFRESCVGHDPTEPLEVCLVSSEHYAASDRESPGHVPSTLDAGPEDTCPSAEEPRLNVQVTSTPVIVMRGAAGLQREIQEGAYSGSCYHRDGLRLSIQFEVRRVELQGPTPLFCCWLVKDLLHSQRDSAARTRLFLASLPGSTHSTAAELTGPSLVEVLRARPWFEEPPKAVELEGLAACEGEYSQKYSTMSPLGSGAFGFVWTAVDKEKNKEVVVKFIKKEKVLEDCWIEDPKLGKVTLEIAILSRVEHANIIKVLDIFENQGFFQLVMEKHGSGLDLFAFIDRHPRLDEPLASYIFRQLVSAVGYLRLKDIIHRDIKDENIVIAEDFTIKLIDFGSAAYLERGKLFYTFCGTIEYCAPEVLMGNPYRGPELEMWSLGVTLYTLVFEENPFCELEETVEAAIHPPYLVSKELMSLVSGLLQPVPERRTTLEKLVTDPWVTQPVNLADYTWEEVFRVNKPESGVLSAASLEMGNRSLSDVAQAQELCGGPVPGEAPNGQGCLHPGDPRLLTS
Chain of Mixed lineage kinase domain-like protein (Q8NB16 whole entry, the tested form may be a part): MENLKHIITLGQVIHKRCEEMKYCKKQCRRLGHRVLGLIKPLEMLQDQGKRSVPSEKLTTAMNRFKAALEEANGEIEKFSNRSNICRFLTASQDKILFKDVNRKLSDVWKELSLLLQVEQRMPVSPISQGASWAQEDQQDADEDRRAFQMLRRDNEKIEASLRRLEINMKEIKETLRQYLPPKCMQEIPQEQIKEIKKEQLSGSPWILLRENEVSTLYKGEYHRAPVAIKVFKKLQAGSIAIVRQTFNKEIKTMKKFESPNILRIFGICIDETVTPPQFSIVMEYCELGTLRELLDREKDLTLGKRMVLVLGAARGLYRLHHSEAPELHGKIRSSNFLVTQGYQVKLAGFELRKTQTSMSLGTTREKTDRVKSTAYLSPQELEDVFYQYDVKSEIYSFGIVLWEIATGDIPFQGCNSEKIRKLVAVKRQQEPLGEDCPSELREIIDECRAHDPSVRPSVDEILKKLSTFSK
Chain of 5-hydroxytryptamine receptor 5A (Homo sapiens) (P47898 whole entry): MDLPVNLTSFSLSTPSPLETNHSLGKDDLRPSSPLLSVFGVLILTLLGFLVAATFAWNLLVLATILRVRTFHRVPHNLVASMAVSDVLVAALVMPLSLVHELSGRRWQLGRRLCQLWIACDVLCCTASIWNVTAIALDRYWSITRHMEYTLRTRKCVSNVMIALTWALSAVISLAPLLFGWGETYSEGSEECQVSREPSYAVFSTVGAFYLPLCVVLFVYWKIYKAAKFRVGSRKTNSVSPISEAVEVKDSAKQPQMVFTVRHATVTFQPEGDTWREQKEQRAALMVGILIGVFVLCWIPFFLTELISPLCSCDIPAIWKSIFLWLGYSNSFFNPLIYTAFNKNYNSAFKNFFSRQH
Chain of Serine/threonine-protein kinase 4 (Q13043 whole entry): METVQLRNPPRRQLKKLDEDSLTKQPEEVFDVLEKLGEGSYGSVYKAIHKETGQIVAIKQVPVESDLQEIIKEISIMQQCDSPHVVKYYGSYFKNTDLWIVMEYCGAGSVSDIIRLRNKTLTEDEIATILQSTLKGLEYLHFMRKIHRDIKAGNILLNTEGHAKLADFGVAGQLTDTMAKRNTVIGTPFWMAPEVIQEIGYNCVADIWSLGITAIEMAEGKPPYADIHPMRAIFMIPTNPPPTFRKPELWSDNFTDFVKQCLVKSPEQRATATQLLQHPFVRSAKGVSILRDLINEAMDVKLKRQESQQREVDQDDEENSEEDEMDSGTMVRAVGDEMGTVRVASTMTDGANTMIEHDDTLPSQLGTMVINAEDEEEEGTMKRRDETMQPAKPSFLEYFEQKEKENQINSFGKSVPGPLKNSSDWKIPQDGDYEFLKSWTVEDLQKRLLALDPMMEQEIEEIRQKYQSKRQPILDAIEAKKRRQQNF
Chain of Histamine H1 receptor (Homo sapiens) (P35367 whole entry): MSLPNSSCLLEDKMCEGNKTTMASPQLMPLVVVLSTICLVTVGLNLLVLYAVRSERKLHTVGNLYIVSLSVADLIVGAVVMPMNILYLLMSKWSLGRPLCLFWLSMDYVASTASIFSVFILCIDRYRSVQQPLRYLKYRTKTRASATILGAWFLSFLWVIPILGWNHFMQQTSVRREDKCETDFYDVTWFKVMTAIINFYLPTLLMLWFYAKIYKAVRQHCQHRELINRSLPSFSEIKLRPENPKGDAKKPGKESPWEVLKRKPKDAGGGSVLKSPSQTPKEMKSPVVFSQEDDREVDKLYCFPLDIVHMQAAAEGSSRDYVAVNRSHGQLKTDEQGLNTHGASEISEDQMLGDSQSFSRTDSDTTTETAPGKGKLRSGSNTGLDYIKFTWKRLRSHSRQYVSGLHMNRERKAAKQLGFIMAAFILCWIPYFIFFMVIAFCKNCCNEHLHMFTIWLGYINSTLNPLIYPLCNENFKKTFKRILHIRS
Chain of SRSF protein kinase 1 (Q96SB4 whole entry): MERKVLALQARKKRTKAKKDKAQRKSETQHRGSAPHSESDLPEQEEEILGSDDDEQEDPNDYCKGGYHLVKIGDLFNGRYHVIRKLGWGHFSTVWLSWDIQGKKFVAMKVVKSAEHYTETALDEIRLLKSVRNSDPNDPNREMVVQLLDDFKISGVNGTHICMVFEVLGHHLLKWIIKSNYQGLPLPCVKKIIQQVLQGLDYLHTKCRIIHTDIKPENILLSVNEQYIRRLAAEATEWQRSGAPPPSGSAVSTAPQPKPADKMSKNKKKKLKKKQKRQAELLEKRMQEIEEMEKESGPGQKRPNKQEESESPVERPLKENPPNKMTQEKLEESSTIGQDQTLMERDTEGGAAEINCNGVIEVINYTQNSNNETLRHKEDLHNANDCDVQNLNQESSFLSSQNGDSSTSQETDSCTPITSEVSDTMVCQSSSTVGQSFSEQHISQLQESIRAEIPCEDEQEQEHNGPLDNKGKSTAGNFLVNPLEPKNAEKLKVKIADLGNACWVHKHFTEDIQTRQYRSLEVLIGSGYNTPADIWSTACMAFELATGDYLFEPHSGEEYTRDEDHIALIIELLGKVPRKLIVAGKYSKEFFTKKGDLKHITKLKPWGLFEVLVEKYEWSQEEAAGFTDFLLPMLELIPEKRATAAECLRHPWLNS
Chain of Casein kinase I isoform alpha-like (Q8N752 whole entry, canonical isoform): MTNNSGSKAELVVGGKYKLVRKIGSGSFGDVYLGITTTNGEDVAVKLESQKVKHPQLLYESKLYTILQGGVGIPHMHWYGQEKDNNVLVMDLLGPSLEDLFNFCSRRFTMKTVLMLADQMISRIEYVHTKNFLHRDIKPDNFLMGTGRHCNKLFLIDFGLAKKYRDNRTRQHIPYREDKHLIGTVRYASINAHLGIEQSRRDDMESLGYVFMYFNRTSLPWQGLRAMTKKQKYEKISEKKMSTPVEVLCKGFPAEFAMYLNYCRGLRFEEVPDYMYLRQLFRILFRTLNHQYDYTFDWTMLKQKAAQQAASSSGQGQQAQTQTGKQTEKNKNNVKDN
Chain of 5-hydroxytryptamine receptor 1D (Homo sapiens) (P28221 whole entry): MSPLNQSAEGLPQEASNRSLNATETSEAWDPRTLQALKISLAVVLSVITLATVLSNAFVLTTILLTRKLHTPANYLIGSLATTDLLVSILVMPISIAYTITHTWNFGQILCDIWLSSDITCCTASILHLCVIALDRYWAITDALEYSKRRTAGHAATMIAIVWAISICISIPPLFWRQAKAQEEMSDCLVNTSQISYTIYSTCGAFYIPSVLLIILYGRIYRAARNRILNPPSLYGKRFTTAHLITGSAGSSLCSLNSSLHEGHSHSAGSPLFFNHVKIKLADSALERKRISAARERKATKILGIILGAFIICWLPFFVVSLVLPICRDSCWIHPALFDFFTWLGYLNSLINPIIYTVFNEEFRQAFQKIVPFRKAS
Chain of Tyrosine-protein kinase FRK (P42685 whole entry): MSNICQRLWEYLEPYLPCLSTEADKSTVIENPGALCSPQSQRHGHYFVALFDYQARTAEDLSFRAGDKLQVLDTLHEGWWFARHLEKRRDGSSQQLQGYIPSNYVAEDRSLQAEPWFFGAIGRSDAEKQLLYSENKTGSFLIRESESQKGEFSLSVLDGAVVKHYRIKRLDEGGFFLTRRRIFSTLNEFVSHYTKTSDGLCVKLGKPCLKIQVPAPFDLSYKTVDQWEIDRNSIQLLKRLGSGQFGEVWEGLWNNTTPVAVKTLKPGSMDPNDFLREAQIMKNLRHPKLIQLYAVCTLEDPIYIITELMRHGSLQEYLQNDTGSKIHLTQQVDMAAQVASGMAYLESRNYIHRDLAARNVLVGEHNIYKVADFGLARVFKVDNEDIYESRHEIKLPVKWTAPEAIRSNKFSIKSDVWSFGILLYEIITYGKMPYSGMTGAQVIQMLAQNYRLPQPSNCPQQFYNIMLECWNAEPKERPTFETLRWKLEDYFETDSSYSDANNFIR

## CN1C(=O)[C@@H](N2CCc3c(nn(Cc4ccccc4)c3Br)C2=O)COc2ccccc21 [TP-030-2]
[1]
  inhibition: 33%
[2]
  inhibition: 4%
[3]
  IC50: 1000 nM
[4]
  IC50: 1000 nM
[5]
  IC50: 1000 nM
[6]
  IC50: 1000 nM
[7]
  IC50: 1000 nM
[8]
  IC50: 1000 nM
[9]
  IC50: 1000 nM
[10]
  IC50: 1000 nM
[11]
  IC50: 1000 nM
[12]
  IC50: 1000 nM
[13]
  IC50: 1000 nM
[14]
  IC50: 1000 nM
[15]
  IC50: 1000 nM
[16]
  IC50: 1000 nM
[17]
  IC50: 1000 nM
[18]
  IC50: 1000 nM
[19]
  IC50: 1000 nM
[20]
  IC50: 1000 nM
[21]
  IC50: 1000 nM
[22]
  IC50: 1000 nM
[23]
  IC50: 1000 nM
[24]
  IC50: 1000 nM
[25]
  IC50: 1000 nM
[26]
  IC50: 1000 nM
[27]
  IC50: 1000 nM
[28]
  IC50: 1000 nM
[29]
  IC50: 1000 nM
[30]
  IC50: 1000 nM
[31]
  IC50: 1000 nM
[32]
  IC50: 1000 nM
[33]
  IC50: 1000 nM
[34]
  IC50: 1000 nM
[35]
  IC50: 1000 nM
[36]
  inhibition: 16.9%
[37]
  inhibition: -5.06%
[38]
  inhibition: 38.2%
[39]
  inhibition: 16.1%
[40]
  inhibition: -5.95%
[41]
  inhibition: 30.1%
[42]
  inhibition: 11.2%
[43]
  inhibition: 1.23%
[44]
  inhibition: -4%
[45]
  inhibition: 9%
[46]
  inhibition: -4%
